# Test results as given in patent publication US20130266557A1, “METHODS FOR TREATMENT OF A SARCOMA USING AN EPIMETABOLIC SHIFTER (COENZYME Q10)” (priority 2009, published 2013).
# System: NCIES0808 cells
# Assay: Two-dimensional gel analysis with MS identification
# Format: cell-based, human
# Conditions: − = down, 1 = no change; for Spot 154, Translin-associated factor X: modulation vs control media / Spot 240, Proteasome 26S subunit 13; Endophilin B1: modulation vs control media / Spot 284, Proteasome 26S subunit: modulation vs control media / Spot 583, hnRNP C1/C2: modulation vs control media / Spot 612, Myosin Regulatory Light Chain: modulation vs control media / Spot 667, Dismutase Cu/Zn Superoxide: modulation vs control media / Spot 685, hnRNP C1/C2: modulation vs control media / Spot 746, Actin-like 6A; Eukaryotic Initiation Factor 4All: modulation vs control media / Spot 938, Nuclear Chloride Channel protein: modulation vs control media / Spot 940, Ubiquilin 1; Phosphatase 2A: modulation vs control media: 3 hours; for Spot 452, acid phosphatase 1: modulation vs control media / Spot 477, diazepam binding inhibitor: modulation vs control media / Spot 530, ribosomal protein SA: modulation vs control media / Spot 652, proteasome beta 3: modulation vs control media / Spot 720, dCTP pyrophosphatase 1: modulation vs control media / Spot 773, proteasome beta 4: modulation vs control media / Spot 1057, Arsenite translocating ATPase; Spermine synthetase: modulation vs control media: 6 hours
# Method: NCIES0808 cells were plated in T25 flasks in experimental conditions similar to those described in the PCR array section. At the end of the treatment time, cells were trypsinized as described in the PCR array section and washed twice in ice cold TBS and snap frozen in liquid nitrogen. Further processing for Western blots was carried out at UMass.
# Before isoelectric focusing (IEF), samples were solubilized in 40 mM Tris, 7 M urea, 2 M thiourea, and 1% C7 zwitterionic detergent, reduced with tributylphosphine, and alkylated with 10 mM acrylamide for 90 min at room temperature. After the sample was run through a 10-kDa cutoff Amicon Ultra device with at least 3 volumes of the resuspension buffer, consisting of 7 M urea, 2 M thiourea, and 2% CHAPS to reduce the conductivity of the sample. One hundred micrograms of protein were subjected to IEF on 11-cm pH 3 to 10, pH 4 to 7 or pH 6 to 11 immobilized pH gradient strips (GE, Amersham, USA) to 100,000 volts hour. After IEF, immobilized pH gradient strips were equilibrated in 6 M urea, 2% SDS, 50 mM Tris-acetate buffer, pH 7.0, and 0.01% bromphenol blue and subjected to SDS-polyacrylamide gel electrophoresis on 8 to 16% Tris-HCl Precast Gel, 1 mm (Bio-Rad, USA). The gels were run in duplicate. They were fixed, stained in SYPRO Ruby, 80 mL/gel (Invitrogen, USA) and imaged on Fuji FLA-5100 laser scanner.
# Analysis of all gel images was performed using Progenesis Discovery and Pro (Nonlinear Dynamics Inc., Newcastle upon Tyne, UK). After spot detection, matching, background subtraction, normalization, and filtering, data for SYPRO Ruby gel images was exported. […] Manual annotation of each statistically significant spots was performed to assure accurate detection.
# Tryptic peptides extracted from respective gel plugs were dried down to a 10 ul volume and acidified with 1-2 ul of 1% TFA. Samples were loaded on an uC18 Zip Tip (Millipore, Corp) after pre-equilibration in 0.1% TFA. After washing with 2×10 ul aliquots of 0.1% TFA, samples were deposited directly onto the MALDI sample target using 1 ul of Matrix solution 15 mg/ml of 2,5 Dihydroxybenzoic Acid (MassPrep DHB, Waters Corp.) in 50:50 Acetonitrile: 0.1% TFA. Samples were allowed to air dry prior to insertion into the mass spectrometer. Analysis were performed on a Kratos Axima QIT (Shimadzu Instruments) matrix-assisted-laser desorption/ionization (MALDI) mass spectrometer. Peptides were analyzed in positive ion mode in mid mass range (700-3000 Da). The instrument was externally calibrated with Angiotensin II (1046.54), P14R (1533.86) and ACTH (18-39) 2465.20 Da. Precursors were selected based on signal intensity at a mass resolution width of 250 for CID fragmentation using Argon as the collision gas. Database searches were performed in house with Mascot (Matrix Sciences, Ltd.) using the Peptide Mass Fingerprint program for MS data and the MS/MS Ion Search program for CID data. All identifications were confirmed or established with CID (MS/MS) data.
# NCIES0808 cells treated for 3, 6 and 24 hours were subjected to 2-D gel electrophoreses and were analyzed to identify protein-level changes relative to the control media samples. A comparative analysis of spots across multiple duplicated gels was performed, comparing the “control media sample” against all of the treated samples at both the 50 uM and 100 uM doses. The analysis included the identification of spot changes over the time course due to an increase, decrease, or post-translational modification.
substance,measurement,setting,value
Coenzyme Q10 [CoQ10],"Spot 154, Translin-associated factor X: modulation vs control media",50 uM Q10,1
same,"Spot 240, Proteasome 26S subunit 13; Endophilin B1: modulation vs control media",50 uM Q10,−1.3
same,"Spot 284, Proteasome 26S subunit: modulation vs control media",50 uM Q10,−1.1
same,"Spot 583, hnRNP C1/C2: modulation vs control media",50 uM Q10,1.4
same,"Spot 612, Myosin Regulatory Light Chain: modulation vs control media",50 uM Q10,1.4
same,"Spot 667, Dismutase Cu/Zn Superoxide: modulation vs control media",50 uM Q10,−1.1
same,"Spot 685, hnRNP C1/C2: modulation vs control media",50 uM Q10,1.2
same,"Spot 746, Actin-like 6A; Eukaryotic Initiation Factor 4All: modulation vs control media",50 uM Q10,−1.3
same,"Spot 938, Nuclear Chloride Channel protein: modulation vs control media",50 uM Q10,−1.2
same,"Spot 940, Ubiquilin 1; Phosphatase 2A: modulation vs control media",50 uM Q10,1
same,"Spot 154, Translin-associated factor X: modulation vs control media",100 uM Q10,−1.9
same,"Spot 240, Proteasome 26S subunit 13; Endophilin B1: modulation vs control media",100 uM Q10,1.5
same,"Spot 284, Proteasome 26S subunit: modulation vs control media",100 uM Q10,−1.6
same,"Spot 583, hnRNP C1/C2: modulation vs control media",100 uM Q10,1.5
same,"Spot 612, Myosin Regulatory Light Chain: modulation vs control media",100 uM Q10,1.4
same,"Spot 667, Dismutase Cu/Zn Superoxide: modulation vs control media",100 uM Q10,−1.4
same,"Spot 685, hnRNP C1/C2: modulation vs control media",100 uM Q10,1.2
same,"Spot 746, Actin-like 6A; Eukaryotic Initiation Factor 4All: modulation vs control media",100 uM Q10,−1.2
same,"Spot 938, Nuclear Chloride Channel protein: modulation vs control media",100 uM Q10,−1.2
same,"Spot 940, Ubiquilin 1; Phosphatase 2A: modulation vs control media",100 uM Q10,1.3
same,"Spot 452, acid phosphatase 1: modulation vs control media",50 uM Q10,−1.3
same,"Spot 477, diazepam binding inhibitor: modulation vs control media",50 uM Q10,−1.4
same,"Spot 530, ribosomal protein SA: modulation vs control media",50 uM Q10,−1.2
same,"Spot 652, proteasome beta 3: modulation vs control media",50 uM Q10,−1.1
same,"Spot 720, dCTP pyrophosphatase 1: modulation vs control media",50 uM Q10,−1.2
same,"Spot 773, proteasome beta 4: modulation vs control media",50 uM Q10,−1.1
same,"Spot 1057, Arsenite translocating ATPase; Spermine synthetase: modulation vs control media",50 uM Q10,−1.1
same,"Spot 452, acid phosphatase 1: modulation vs control media",100 uM Q10,−1.5
same,"Spot 477, diazepam binding inhibitor: modulation vs control media",100 uM Q10,−1.2
same,"Spot 530, ribosomal protein SA: modulation vs control media",100 uM Q10,−1.4
same,"Spot 652, proteasome beta 3: modulation vs control media",100 uM Q10,−1.3
same,"Spot 720, dCTP pyrophosphatase 1: modulation vs control media",100 uM Q10,−1.2
same,"Spot 773, proteasome beta 4: modulation vs control media",100 uM Q10,−1.2
same,"Spot 1057, Arsenite translocating ATPase; Spermine synthetase: modulation vs control media",100 uM Q10,−1.2
same,"Spot 16, alpha 2-HS glycoprotein (Bos Taurus, cow): modulation vs control media","24 hours, 50 uM Q10",1.4
same,"Spot 130, ribosomal proten P2; histone H2A: modulation vs control media","24 hours, 50 uM Q10",−1.3
same,"Spot 180, beta actin: modulation vs control media","24 hours, 50 uM Q10",1.3
same,"Spot 234, hnRNP C1/C2: modulation vs control media","24 hours, 50 uM Q10",−1.2
same,"Spot 244, heat shock protein 70 kD: modulation vs control media","24 hours, 50 uM Q10",1.1
same,"Spot 275, microtubule associated protein: modulation vs control media","24 hours, 50 uM Q10",1.1
same,"Spot 311, beta tubulin: modulation vs control media","24 hours, 50 uM Q10",1.7
same,"Spot 314, proteasome alpha 3: modulation vs control media","24 hours, 50 uM Q10",1.1
same,"Spot 363, ATP dependent helicase II: modulation vs control media","24 hours, 50 uM Q10",1.2
same,"Spot 369, eukaryotic translation elongation factor 1 delta: modulation vs control media","24 hours, 50 uM Q10",1.1
